Data from patent publication US20210145764A1, “COMPOSITIONS OF CANNABIDIOL (CBD), AND/OR POLYPHENOLS, AND METHODS FOR THE PREVENTION AND/OR TREATMENT OF SKIN, MUSCLE, NERVE AND INFLAMMATORY DISORDERS, AND BIOLOGICAL FACTORS AND FUNCTIONS IN MAMMALS” (BRIGHAM YOUNG UNIVERSITY, priority 2019, published 2021).

Assays:
[1] = cited from earlier work
[2] = target: Estrogen Receptor Alpha (α) (Homo sapiens, UniProt P03372); conditions: cited from earlier work; for Ki: read-out: Binds Estrogen Receptor Alpha (α), Ki
[3] = target: Estrogen Receptor Beta (β) (Homo sapiens, UniProt Q92731); conditions: cited from earlier work; for Ki: read-out: Binds Estrogen Receptor Beta (β), Ki
[4] = test system: Growth Factors; conditions: cited from earlier work
[5] = test system: MMPs; conditions: cited from earlier work
[6] = test system: Inflammatory Molecules; conditions: cited from earlier work
[7] = cited from earlier work; remark: listed apart in the source
[8] = target: T1, 5α-Reductase Enzyme (type 1 in skin) (Homo sapiens, UniProt P18405); conditions: cited from earlier work
T1 sequence (P18405 1-259): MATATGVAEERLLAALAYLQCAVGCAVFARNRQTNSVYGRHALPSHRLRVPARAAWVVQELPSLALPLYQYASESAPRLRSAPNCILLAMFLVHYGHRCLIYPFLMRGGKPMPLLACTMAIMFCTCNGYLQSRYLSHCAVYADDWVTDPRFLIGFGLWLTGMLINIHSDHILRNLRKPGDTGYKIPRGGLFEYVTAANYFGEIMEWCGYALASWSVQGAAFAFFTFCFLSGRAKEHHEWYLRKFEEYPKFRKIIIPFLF

[9] = test system: Collagen; conditions: cited from earlier work
[10] = test system: Elastin; conditions: cited from earlier work
[11] = test system: TIMP1; conditions: cited from earlier work
[12] = in vivo; cited from earlier work
[13] = test system: Elastase; conditions: cited from earlier work
[14] = test system: AP-1; conditions: same concentrations; cited from earlier work
[15] = test system: NFkappB; conditions: cited from earlier work
[16] = target: T2, Nrf2 (Homo sapiens, UniProt Q16236); conditions: cited from earlier work
T2 sequence (Q16236 1-605): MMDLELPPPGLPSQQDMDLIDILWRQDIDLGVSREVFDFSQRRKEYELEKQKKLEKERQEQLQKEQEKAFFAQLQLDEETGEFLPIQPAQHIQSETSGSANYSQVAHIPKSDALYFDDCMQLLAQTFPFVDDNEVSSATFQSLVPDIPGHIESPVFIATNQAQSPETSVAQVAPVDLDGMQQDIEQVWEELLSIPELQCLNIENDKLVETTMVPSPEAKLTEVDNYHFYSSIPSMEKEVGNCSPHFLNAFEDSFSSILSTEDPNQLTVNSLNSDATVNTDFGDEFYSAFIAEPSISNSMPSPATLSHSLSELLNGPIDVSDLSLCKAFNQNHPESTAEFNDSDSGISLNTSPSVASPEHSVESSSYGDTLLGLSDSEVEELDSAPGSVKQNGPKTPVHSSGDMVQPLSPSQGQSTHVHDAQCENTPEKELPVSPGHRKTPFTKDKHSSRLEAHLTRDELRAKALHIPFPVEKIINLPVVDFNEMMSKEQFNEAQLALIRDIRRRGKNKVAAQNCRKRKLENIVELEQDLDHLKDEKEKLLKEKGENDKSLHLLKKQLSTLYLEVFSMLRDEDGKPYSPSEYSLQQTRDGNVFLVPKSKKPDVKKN

[17] = target: T3, Estrogen Related Receptor gamma (γ) (Homo sapiens, UniProt P62508); conditions: cited from earlier work
T3 sequence (P62508 1-458): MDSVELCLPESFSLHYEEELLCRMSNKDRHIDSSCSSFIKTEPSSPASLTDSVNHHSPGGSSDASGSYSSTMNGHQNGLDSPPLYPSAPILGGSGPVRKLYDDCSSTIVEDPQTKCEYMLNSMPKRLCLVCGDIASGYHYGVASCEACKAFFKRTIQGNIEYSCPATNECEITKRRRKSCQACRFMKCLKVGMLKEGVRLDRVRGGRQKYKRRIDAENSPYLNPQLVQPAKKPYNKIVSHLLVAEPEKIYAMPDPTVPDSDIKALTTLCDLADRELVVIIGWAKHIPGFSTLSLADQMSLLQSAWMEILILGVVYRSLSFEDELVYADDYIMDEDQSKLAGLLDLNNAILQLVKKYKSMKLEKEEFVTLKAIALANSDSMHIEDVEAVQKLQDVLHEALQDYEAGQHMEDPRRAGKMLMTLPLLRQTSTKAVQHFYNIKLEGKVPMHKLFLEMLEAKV

[18] = test system: human skin biomarkers; conditions: cited from earlier work
[19] = single topical dose, human skin; cited from earlier work
[20] = test system: dermal layer (only) of the human skin cultures; assay: MTT assay viability, dermal layer (only); format: cell-based
Description: Testing CBD and equol at various concentration to determine tissue/cell viability as indicated on the y- and x-axis and figure labels for subsequent human skin gene analysis. Triton X-100 treatment (cytotoxic control).

[21] = test system: full thickness epidermal/dermal human skin cultures; assay: MTT assay cell viability, full thickness skin cultures; format: cell-based
Description: Testing CBD and equol at various concentration to determine tissue/cell viability as indicated on the y- and x-axis and figure labels for subsequent human skin gene analysis. Triton X-100 treatment (cytotoxic control). Note: The MTT assay is a colorimetric assay, which has been validated for measuring cell metabolic activity. It is based on the ability of nicotinamide adenine dinucleotide phosphate (NADPH)-dependent cellular oxidoreductase enzymes to reduce the tetrazolium dye MTT to its insoluble formazan, which has a purple color. The absorbance of this colored solution can be quantified by measuring at a certain wavelength (usually between 500 and 600 nm) by a spectrophotometer. The MTT method is one of the most widely used methods to analyze cell proliferation and viability in human skin cells (Triglia et al., 1991).

[22] = test system: full epidermal/dermal thickness human skin cultures; assay: Histology (hematoxylin/eosin) of human skin cultures; format: cell-based; conditions: 0.3% CBD; 0.5% equol; combination; 40× magnification
Experimental: FIG. 14 depicts photomicrographs (40× magnification) of full epidermal/dermal thickness human skin cultures. […] Standard bar=50 microns.
In human skin gene expression analysis full epidermal/dermal thickness human skin cultures were used.
The skin cultures were treated with: (a) transcutol vehicle; (b) 0.3% CBD; and (c) 0.5% equol and 0.3% CDB plus 0.5% equol.

[23] = 12 weeks; Equol alone at 0.3%; cited from earlier work
[24] = cited from earlier work; remark: listed apart in the source
[25] = drug delivery studies; cited from earlier work

Chain of Estrogen Receptor Alpha (α) (P03372 whole entry): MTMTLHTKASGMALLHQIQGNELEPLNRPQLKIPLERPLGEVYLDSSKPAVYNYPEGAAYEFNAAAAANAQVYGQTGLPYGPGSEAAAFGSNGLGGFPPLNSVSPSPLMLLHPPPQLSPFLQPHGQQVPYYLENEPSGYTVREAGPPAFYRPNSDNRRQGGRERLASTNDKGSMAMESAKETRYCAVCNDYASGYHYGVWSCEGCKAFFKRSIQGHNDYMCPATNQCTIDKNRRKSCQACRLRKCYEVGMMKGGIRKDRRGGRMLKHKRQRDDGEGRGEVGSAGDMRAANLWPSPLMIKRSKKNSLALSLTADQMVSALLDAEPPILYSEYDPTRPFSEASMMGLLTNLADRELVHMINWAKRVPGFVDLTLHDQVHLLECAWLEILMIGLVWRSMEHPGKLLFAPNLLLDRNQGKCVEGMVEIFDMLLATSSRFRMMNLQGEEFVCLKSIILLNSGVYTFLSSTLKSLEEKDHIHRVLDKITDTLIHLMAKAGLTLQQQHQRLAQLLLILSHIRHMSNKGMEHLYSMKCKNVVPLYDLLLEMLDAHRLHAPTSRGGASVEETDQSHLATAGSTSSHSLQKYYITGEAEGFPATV
Chain of Estrogen Receptor Beta (β) (Q92731 whole entry, species assumed): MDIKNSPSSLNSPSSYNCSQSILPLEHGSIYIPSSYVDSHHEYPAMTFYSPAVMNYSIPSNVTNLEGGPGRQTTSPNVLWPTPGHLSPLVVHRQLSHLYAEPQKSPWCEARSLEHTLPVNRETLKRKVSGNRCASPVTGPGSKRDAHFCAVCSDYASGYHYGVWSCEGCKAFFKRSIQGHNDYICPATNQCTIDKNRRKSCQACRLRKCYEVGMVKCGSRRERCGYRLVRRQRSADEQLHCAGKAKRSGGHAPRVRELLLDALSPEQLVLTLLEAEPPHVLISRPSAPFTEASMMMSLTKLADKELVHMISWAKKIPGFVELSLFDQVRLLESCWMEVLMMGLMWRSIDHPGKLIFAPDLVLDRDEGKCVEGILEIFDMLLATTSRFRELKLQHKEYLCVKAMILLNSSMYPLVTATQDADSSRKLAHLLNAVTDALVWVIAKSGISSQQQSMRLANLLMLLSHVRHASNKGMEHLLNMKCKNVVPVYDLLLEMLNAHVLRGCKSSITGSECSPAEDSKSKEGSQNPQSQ

In the case of `CCCCCc1cc(O)c2c(c1)OC(C)(C)[C@@H]1CCC(C)=C[C@@H]21` [THC, tetrahydrocannabinol], the “solubility in most organic solvents” value ([1]; organic solvents, particularly lipids and alcohols) is given as “good solubility” and the solubility in water ([1]; water) is given as “low solubility”.

For `Oc1ccc([C@H]2COc3cc(O)ccc3C2)cc1` [S-Equol, S-equol], the “affinity for ER alpha” value [2] is given as “low affinity”, the Ki [2] is given as 15.4 nM and the “binding to estrogen receptor beta relative to 17β-estradiol” value ([3]; as well as 17β-estradiol) is given as “approximately ⅕”. The Ki [3] was 6.4 nM, the “Stimulates Growth Factors” value [4] was “Yes, to low levels” and the “Inhibits MMPs” value [5] was “Yes, to low levels of”. The “Inhibits Inflammatory Molecules” value [6] was “Yes, low inhibition”, the “Oral Metabolism in Humans (pharmacokinetics compared to each other)” value [7] was “Similar” and the “Inhibits 5α-Reductase Enzyme (type 1 in skin)” value (“Inhibits 5α-Reductase Enzyme” for short) [8] was “No”. The “Stimulates Collagen” value [9] was “Yes”, the “Stimulates Elastin” value [10] was “No” and the “Stimulates TIMPI” value [11] was “Yes”.

In the case of `O=c1c(-c2ccc(O)cc2)coc2cc(O)cc(O)c12` [genistein], the intestinal absorption levels [12] is given as 15-20%.

In the case of `Oc1ccc(C2COc3cc(O)ccc3C2)cc1` (racemic) [Racemic Equol, equol], the “Inhibits Elastase” value [13] is listed as “Yes”, the IC50 ([2]; read-out: Binds Estrogen Receptor Alpha (α), IC50) is listed as 1500 nM and the IC50 ([3]; read-out: Binds Estrogen Receptor Beta (β), IC50) is listed as 200 nM. For the same compound, the “Stimulates Growth Factors” value [4] was “Yes, to moderate”, the “Inhibits MMPs” value [5] was “Yes, to moderate” and the “Inhibits Inflammatory Molecules” value [6] was “Yes, high inhibition”. For the same compound, the “TPA-induced activation of AP-1” value [14] was “dose-dependently attenuated”, the “Inhibits NFkappB” value [15] was “Yes, high inhibition” and the “Oral Metabolism in Humans (pharmacokinetics compared to each other)” value [7] was “Similar”. The “Binds Nrf2/activates other antioxidants” value [16] was “Yes”, the “Inhibits 5α-Reductase Enzyme” value [8] was “Yes” and the “Stimulates Collagen” value [9] was “Yes”. The “Binds/Activates Estrogen Related Receptor gamma (γ)” value [17] was “Yes”, the “Stimulates Elastin” value [10] was “Yes” and the “Stimulates TIMPI” value [11] was “Yes”.

In the case of `CC1=C(/C=C/C(C)=C/C=C/C(C)=C/C=C/C=C(C)/C=C/C=C(C)/C=C/C2=C(C)C(=O)[C@@H](O)CC2(C)C)C(C)(C)C[C@H](O)C1=O` [astaxanthin, reference compound], the “number of human skin biomarkers/genes significantly altered” value [18] is given as 6.

In the case of `Oc1ccc([C@H]2COc3cc(O)ccc3C2)cc1` (racemic) [Equol, equol], the “skin penetration profile, peak time” value [19] is listed as “around 8 hours”, the “sustained release after the initial application” value [19] is listed as “up to 28 hours” and the “relative percent cell viability, dermal layer only (MTT)” value ([20]; human) is listed as “around 100%”. For the same compound, the “number of human skin biomarkers/genes significantly altered” value [18] was 39, the “relative percent cell viability, full thickness cultures (MTT)” value ([21]; human) was “around 100%” and the “epidermal and dermal components and epidermal/dermal borders (histology)” value [22] was “intact and healthy”. For the same compound, the “Even Skin Tone, Self-Assessment Questionnaire efficacy” value [23] was 70%, the “Frown Lines/Wrinkles, Self-Assessment Questionnaire efficacy” value [23] was 72% and the “Hydration, Self-Assessment Questionnaire efficacy” value [23] was 71%. For the same compound, the “Pore Size, Self-Assessment Questionnaire efficacy” value [23] was 51%, the “Radiance/Brightness, Self-Assessment Questionnaire efficacy” value [23] was 73% and the “Skin Firmness, Self-Assessment Questionnaire efficacy” value [23] was 77%. For the same compound, the “Smoothness, Self-Assessment Questionnaire efficacy” value [23] was 62%, the “Spots/Discoloration, Self-Assessment Questionnaire efficacy” value [23] was 55% and the “circulates in the free or unbound form in plasma” value [24] was “approximately 50%”. For the same compound, the “transcriptional activity of ERR γ” value [17] was “enhanced”.

For `O=c1c(-c2ccc(O)cc2)coc2cc(O)ccc12` [daidzein, reference compound], the “TPA-induced activation of AP-1” value [14] is given as “did not exert any effect”, the “transcriptional activity of ERR γ” value [17] is given as “did not have this effect” and the intestinal absorption levels [12] is given as 30-40%.

In the case of `Oc1ccc([C@@H]2COc3cc(O)ccc3C2)cc1` [R-Equol, R-equol], the “affinity for ER alpha” value [2] is given as “weak affinity”, the Ki [2] is given as 27.4 nM and the “affinity for ERβ” value [3] is given as “weak affinity”. For the same compound, the Ki [3] was 15.4 nM, the “Stimulates Growth Factors” value [4] was “Yes, to high levels” and the “Inhibits Inflammatory Molecules” value [6] was “Yes, high inhibition”. For the same compound, the “more stable isomer, R-equol vs. S-equol” value [25] was “more stable isomer”, the “Oral Metabolism in Humans (pharmacokinetics compared to each other)” value [7] was “Similar” and the “Inhibits 5α-Reductase Enzyme” value [8] was “Yes”. For the same compound, the “Stimulates Collagen” value [9] was “Yes”, the “Stimulates Elastin” value [10] was “Yes” and the “Stimulates TIMPI” value [11] was “No, or at very low”.

In the case of `C=C(C)[C@@H]1CCC(C)=C[C@H]1c1c(O)cc(CCCCC)cc1O` [CBD, cannabidiol], the “relative percent cell viability, dermal layer only (MTT)” value ([20]; FIG. 16) is reported as “around 100%”, the “relative percent cell viability, full thickness cultures (MTT)” value ([21]; FIG. 15) is reported as “around 100%” and the “epidermal and dermal components and epidermal/dermal borders (histology)” value [22] is reported as “intact and healthy”.
